Measurements reported in patent US6914045B2, “Glycopeptide antibiotics” (Wyeth Holdings Corporation, priority 2001, dated 2005).
Numbered stars: 1 amine (or outer) side, 2 acyl side, 3 side chain; on linkers, the order of the positions; unused ones are H or OH. Square brackets hold non-standard residues; d marks the D form. Peptide text beside a SMILES is read from it. ξ: configuration not given here. X1 = N=C1NCC(C(O)C(N[*:1])C(=O)[*:2])N1C1OC(CO)C(O)C(O)C1O; ξEnduracididine(βξ-OH,4'ξ) = N=C1NCC(C(O)C(N)C(=O)O)N1; Tyr(3,5-Br2) = N[CH](Cc1cc(Br)c(O)c(Br)c1)C(=O)O; ξPhe(βξ-Me) = CC(c1ccccc1)C(N)C(=O)O

Key:
Assay in all cases: in vitro antibacterial evaluation, MIC by broth dilution
Assay type in all cases: cell-based
Conditions in all cases: broth dilution, 18 hours at 35° C.
Enterococcus sp. = tested on: Enterococcus sp.
How it was run: (§1)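 Broth dilution per NCCLS M7-A2 in Mueller-Hinton II medium, inoculum 5×10^5 CFU/mL, antibiotic range 64-0.06 μg/mL. MIC taken as lowest concentration inhibiting growth; Gram-positive panel includes recent clinical isolates resistant to methicillin, penicillin and/or vancomycin.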

Staphylococcus sp. = tested on: Staphylococcus sp.
How it was run: as §1

Streptococcus sp. = tested on: Streptococcus sp.
How it was run: as §1

Escherichia coli = tested on: Escherichia coli
How it was run: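 Broth dilution MIC per NCCLS M7-A2 in Mueller-Hinton II medium, inoculum 5×10^5 CFU/mL, antibiotic range 64-0.06 μg/mL. MIC taken as lowest concentration inhibiting growth.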

CC(c1ccccc1)C1NC(=O)CNC(=O)C(CO)NC(=O)C(C(O)C2CNC(=N)N2C2OC(CO)C(O)C(O)C2O)NC(=O)C(C(O)C2CNC(=N)N2)NC(=O)C(Cc2cc(Br)c(O)c(Br)c2)NC1=O (stereo not drawn) [Example 3, Cyclo[glycyl-β-methylphenylalanyl-3,5-dibromotyrosyl-3-(2-iminoimidazolidin-4-yl)seryl-3-(3-hexopyranosyl-2-iminoimidazolidin-4-yl)serylseryl]] (cyclo(G[ξPhe(βξ-Me)][Tyr(3,5-Br2)][ξEnduracididine(βξ-OH,4'ξ)][X1]S); configuration not given here)
128 µg/mL: MIC Coagulase Negative Staphylococcus (GC 4549) (Staphylococcus sp.; strain GC 4549) | MIC Coagulase Negative Staphylococcus (ID-3941) (Staphylococcus sp.; strain ID-3941)
>128 µg/mL: MIC Enterococcus faecalis (ATCC 29212) (Enterococcus sp.; strain ATCC 29212) | MIC Enterococcus faecalis (GC 2242) (Enterococcus sp.; strain GC 2242) | MIC Enterococcus faecium (GC 2243) (Enterococcus sp.; strain GC 2243) | MIC Enterococcus faecalis (GC 4552) (Enterococcus sp.; strain GC 4552) | MIC Enterococcus faecalis (GC 4553) (Enterococcus sp.; strain GC 4553) | MIC Enterococcus faecalis (GC 4554) (Enterococcus sp.; strain GC 4554) | MIC Enterococcus faecium (GC 4556) (Enterococcus sp.; strain GC 4556) | MIC Enterococcus faecium (GC 4557) (Enterococcus sp.; strain GC 4557) | MIC Enterococcus avium (GC 4558) (Enterococcus sp.; strain GC 4558) | MIC Staphylococcus aureus (ATCC 29213) (Staphylococcus sp.; strain ATCC 29213) | MIC Staphylococcus aureus (GC 1131) (Staphylococcus sp.; strain GC 1131) | MIC Staphylococcus aureus (GC 4541) (Staphylococcus sp.; strain GC 4541) | MIC Staphylococcus aureus (GC 4542) (Staphylococcus sp.; strain GC 4542) | MIC Staphylococcus aureus-SMITH (GC 4543) (Staphylococcus sp.; strain GC 4543) | MIC Staphylococcus aureus (GC 4544) (Staphylococcus sp.; strain GC 4544) | MIC Staphylococcus aureus (GC 4545) (Staphylococcus sp.; strain GC 4545) | MIC Staphylococcus haemolyticus (GC 4546) (Staphylococcus sp.; strain GC 4546) | MIC Coagulase Negative Staphylococcus (GC 4547) (Staphylococcus sp.; strain GC 4547) | MIC Coagulase Negative Staphylococcus (GC 4548) (Staphylococcus sp.; strain GC 4548) | MIC Coagulase Negative Staphylococcus (GC 4551) (Staphylococcus sp.; strain GC 4551) | MIC Streptococcus agalactiae (GC 4564) (Streptococcus sp.; strain GC 4564) | MIC Streptococcus pneumoniae (GC 4565) (Streptococcus sp.; strain GC 4565) | MIC Streptococcus pyogenes (ID-3187) (Streptococcus sp.; strain ID-3187) | MIC Escherichia coli (ATCC 25922) (Escherichia coli; strain ATCC 25922) | MIC Escherichia coli (GC 4559) (Escherichia coli; strain GC 4559)
64 µg/mL: MIC Escherichia coli (GC 4560) (Escherichia coli; strain GC 4560)
